According to patent US20030143757A1, “Methods for identifying drug cores” (priority 1997, published 2003):

Molecular target: p38 MAP kinase (Homo sapiens, UniProt Q16539)
Settings: 1 mM each drug core, 0.2 mM p38 MAP kinase, 5° C., pD* 8.4, relaxation filter
Procedure: All the spectra were acquired at 5° C. using a Bruker DMX 500 MHz NMR spectrometer. NOESY spectra were collected using 16 transients with 2048 points in ω2 and 400 points in ω1 and a mixing time of 400 ms for the drug core mixture in the absence of target and 100 ms for the drug core mixture in the presence of p38. A spin echo with an echo delay of 5 ms was used as a relaxation filter before the t1 evolution period in all experiments. Samples contained 1 mM of each drug core, 0.2 mM p38 MAP kinase, 25 mM deutero-Tris, 10% (v/v) deutero-glycerol, 20 mM deutero-dithiothreitol at pD*=8.4.

Chain of p38 MAP kinase (Q16539 whole entry): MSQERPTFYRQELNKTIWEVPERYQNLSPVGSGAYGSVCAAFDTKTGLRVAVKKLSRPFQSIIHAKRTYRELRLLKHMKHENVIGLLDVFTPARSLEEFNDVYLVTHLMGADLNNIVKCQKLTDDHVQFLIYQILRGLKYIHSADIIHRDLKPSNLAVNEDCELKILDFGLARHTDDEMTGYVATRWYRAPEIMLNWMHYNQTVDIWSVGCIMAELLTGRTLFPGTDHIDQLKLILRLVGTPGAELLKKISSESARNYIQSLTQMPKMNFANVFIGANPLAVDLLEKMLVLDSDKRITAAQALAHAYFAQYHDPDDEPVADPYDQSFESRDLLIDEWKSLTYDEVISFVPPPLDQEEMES

O=C(O)c1cccnc1 [nicotinic acid]
binding to p38 MAP kinase by line broadening and peak height attenuation in 1D NMR: does not
